Laboratory results taken from patent US10227591B2, “Modulation of human cytomegalovirus replication by micro-RNA 132 (miR132), micro-RNA 145 (miR145) and micro-RNA 212 (miR212)” (priority 2009, dated 2019).

Experiments:
[1] = system: HCMV proteins IE2, pp65, gB55, IE1; assay: HCMV viral protein expression by western blot after miR145 mimic transfection; type: cell-based; settings: HEL fibroblasts, HCMV MOI=1, 24-144 hpi; compared to control miRNA
Description: These experiments were performed to establish the role of miR145 on HCMV protein expression. HEL fibroblasts were transfected with either a control miRNA or miR145 mimic (Dharmacon). The cells were infected with HCMV (MOI=1) 24 hours after transfection. Cell pellets were collected at 24, 48, 72, 96, 120 and 144 hpi, lysed and examined for viral protein expression by western blot.

IRS-1 = IRS-1 protein Western blot after transfection with miR145 mimic; type: cell-based, Human; settings: HEL fibroblasts; 48, 72 and 96 hours post transfection; compared to control miRNA transfected cells
Description: This experiment was performed to determine whether a miR145 mimic targets Insulin Receptor Substrate-1 (IRS-1) mRNA, which is a target of miR145, in HEL fibroblasts. HEL fibroblasts were transfected with either a control miRNA (ct) or miR145 mimic (145) (Dharmacon). Cell pellets were collected at 24, 48, 72 and 96 hours post transfection and lysed. Western blot was performed using an anti IRS-1 antibody (Upstate Biothechnology). Actin is shown as a loading control. […] This downregulation is not observed in the cells transfected with a control miRNA, or the mock-transfected cells.

HCMV [2] = assay: HCMV viral titers in supernatants by plaque assay after miR145 mimic transfection; type: cell-based
Description: This experiment was performed to determine whether altered regulation of miR145 following viral infection affects viral replication. HEL fibroblasts were transfected with either a control (ct) miRNA or a miR145 mimic (145) (Dharmacon). The cells were infected with HCMV (MOI=1) 24 hours after transfection. Supernatants were collected at 24, 48, 72, 96, 120 and 144 hpi and examined for viral titers by plaque assay. […] A 10-fold difference can be observed from 72 to 96 hpi. At 144 hpi, viral titers are similar in the control and miR145 mimic transfected cells. […] This is consistent with the hypothesis that downregulation of miR145 contributes to HCMV pathogenesis by enhancing its replication.

[3] = system: HCMV proteins IE2, pp65, gB55; assay: HCMV viral protein accumulation by Western blot after antisense miR132 LNA transfection; type: cell-based; settings: HEL cells transfected, infected with HCMV; versus control LNA
Description: (§1) To determine the role of miR132 on HCMV replication, HEL cells were transfected with antisense miR132 LNA, and were infected with HCMV. The amount of virus released from infected cells was quantitated by plaque assay, and viral protein accumulation was analyzed by Western blot of protein lysates from infected cells. […] Taken together with the previous data, this experiment confirms that miR132 is necessary for efficient HCMV replication, and that HCMV replication can be effectively attenuated by inhibition of miR132.

HCMV [4] = assay: HCMV virus release by plaque assay after antisense miR132 LNA transfection; type: cell-based; settings: for viral replication (virus release, viral proteins IE2, pp65, gB55): summary statement in the description, transfection of cells
Description: as §1

MeCP2 = MeCP2 protein Western blot after transfection with miR132 or miR212 LNA; type: cell-based, Human; settings: HEL cells transfected with 500 pmol LNA; nuclear enriched extracts; versus scramble LNA
Source text: In order to assess the role of miR132 and miR212 in virus replication, miR132 and miR212 were inhibited using antisense locked nucleic acid (LNA) oligonucleotides targeting miR132 or miR212 Inhibition of miR132 and/or miR212 in this way counteracts the increase in miR132 or miR212 expression that occurs during HCMV infection. To test the efficacy of the LNAs, HEL cells were transfected with 500 pmol of scramble, miR132, or miR212 specific locked nucleic acid (Exiqon) to inhibit miRNA function. Nuclear enriched extracts were prepared, and protein levels were determined by Western blot.

Substance	IE1 levels [1]	levels of the Early (E) protein pp65 [1]	levels of the Immediate Early (IE) 2 protein [1]	levels of the Late (L) protein gB55 [1]	IRS-1 protein level (IRS-1)	viral titers in the supernatants (HCMV [2]; HEL fibroblasts transfected 24 h before HCMV infection (MOI=1), compared to control miRNA)	viral titers versus control (HCMV [2]; HEL fibroblasts, HCMV MOI=1, at 144 hpi)	difference in viral titers (HCMV [2]; HEL fibroblasts, HCMV MOI=1, from 72 to 96 hpi, versus control miRNA)	reduction in viral titers (HCMV [2]; fibroblast cells transfected, subsequently infected with HCMV)	expression of viral protein IE2 [3]	expression of viral protein gB55 [3]	expression of viral protein pp65 [3]	decrease in virus replication (HCMV [4]; HEL cells transfected, then infected with HCMV, virus release and viral protein expression)	viral replication (virus release, viral proteins IE2, pp65, gB55) (HCMV [4])	MeCP2 protein levels (MeCP2)
miR145 mimic: miR145 mimic (Dharmacon) transfected into HEL fibroblasts; mimics mature miR145 (SEQ ID NO:2) (GUCCAGUUUUCCCAGGAAUCCCU; mimic duplex, passenger strand not given here; listed as Homo sapiens)	Increased IE1 levels	Decreased levels	Decreased levels	Decreased levels	Downregulation	decreased viral titers	similar	10 fold	> 1 log	–	–	–	–	–	–
miR132 LNA: miR132 specific antisense locked nucleic acid (Exiqon); exemplary sequence 5' CGACCATGGCTGTAGACTGTTA 3' (SEQ ID NO:13) (antisense CGACCATGGCTGTAGACTGTTA; LNA-modified antisense, pattern not given here)	–	–	–	–	–	–	–	–	–	reduced	reduced	reduced	3 fold	attenuates viral replication	modest increase
miR212 LNA: miR212 specific antisense locked nucleic acid (Exiqon); exemplary sequence 5' GGCCGTGACTGGAGACTGTTA 3' (SEQ ID NO:14) (LNA-modified antisense, pattern not given here)	–	–	–	–	–	–	–	–	–	–	–	–	–	attenuates viral replication	modest increase
